Common to all, as to assay: In vitro antibacterial activity, broth microdilution MIC90
Common to all, as to assay type: cell-based
A general note: Broth dilution looks for growth in wells or tubes with falling amounts of substance.

The test system of one assay is Moraxella catarrhalis. The protocol:
(§1) MIC90 was measured by broth microdilution method based on CLSI standards [reference: Clinical and Laboratory Standards Institute Document. (2000) Methods for Dilution Antimicrobial Susceptibility Test for Bacteria that Grow Aerobically-Fifth Edition: M7-A5. CLSI, Villanova, Pa.].
(§2) Activities of 12 strains including Staphylococcus aureus, Methicillin Resistant Staphylococcus aureus, Staphylococcus epidermidis, Methicillin Resistant Staphylococcus epidermidis, Enterococcus faecalis, Vancomycin Resistant Enterococcus faecalis, Linezolid and Vancomycin Resistant Enterococcus faecalis, Enterococcus faecium, Vancomycin Resistant Enterococcus faecium, Linezolid and Vancomycin Resistant Enterococcus faecium, and Moraxella catarrhalis, were measured, and results are shown in Table 1 below.
(§3) The final concentration of test material in the antibacterial test was from 0.063 μg/mL (minimum) to 128 μg/mL (maximum), and the final concentration of DMSO used as an excipient was 2.5% (V/V). Linezolid represented by Formula B below (manufactured by Pfizer) was used as a control and bacterial activity thereof was compared with those of the test materials.

The test system of assay [1] is Linezolid and Vancomycin Resistant Enterococcus faecium (strain 11). The protocol:
as §1, §2, §3

The subject of assay [2] is Linezolid and Vancomycin Resistant Enterococcus faecalis. The procedure:
as §1, §2, §3

The subject of assay [3] is Vancomycin Resistant Enterococcus faecium. The procedure: as §1, §2, §3
The test system of assay [4] is Linezolid and Vancomycin Resistant Enterococcus faecium (strain 10). The procedure:
as §1, §2, §3

The subject of assay [5] is Vancomycin Resistant Enterococcus faecalis. The procedure:
as §1, §2, §3

Assay [6] has as its system Methicillin Resistant Staphylococcus aureus. The procedure:
as §1, §2, §3

Assay [7] deals with Staphylococcus epidermidis. The procedure:
as §1, §2, §3

In another assay the test system is Enterococcus faecalis. The protocol:
as §1, §2, §3

A further assay deals with Staphylococcus aureus. The procedure:
as §1, §2, §3

Assay [8] concerns Methicillin Resistant Staphylococcus epidermidis. The protocol: as §1, §2, §3
For the next assay, the system named is Enterococcus faecium. The protocol: as §1, §2, §3

What is called MIC90 is the lowest concentration that inhibits either 90% of growth or 90% of the strains tested, depending on the study. A higher MIC90 goes with weaker potency.

Converted amounts (≈) assume the structure as drawn.

`CC(=O)NC[C@H]1CN(c2ccc(-c3ccc(N4C=NN(C(=O)COC(C)=O)CC4)nc3)c(F)c2)C(=O)O1` [Compound 12]: the MIC90 against Moraxella catarrhalis (Moraxella catarrhalis) was determined as 0.5 µg/mL (≈ 0.976 µM); in assay [1] (Enterococcus faecium), 1 µg/mL (≈ 1.95 µM); in assay [2] (Enterococcus faecalis), 1 µg/mL (≈ 1.95 µM); in assay [3] (Enterococcus faecium), 0.25 µg/mL (≈ 0.488 µM); in assay [4] (Enterococcus faecium), 1 µg/mL (≈ 1.95 µM); in assay [5] (Enterococcus faecalis), 0.25 µg/mL (≈ 0.488 µM). For the same compound, the MIC90 in assay [6] (Staphylococcus aureus) is 0.25 µg/mL (≈ 0.488 µM); in assay [7] (Staphylococcus epidermidis) it was 0.125 µg/mL (≈ 0.244 µM); in the assay on Enterococcus faecalis (Enterococcus faecalis), 0.125 µg/mL (≈ 0.244 µM); with Staphylococcus aureus (Staphylococcus aureus), 0.125 µg/mL (≈ 0.244 µM); in assay [8] (Staphylococcus epidermidis), 0.25 µg/mL (≈ 0.488 µM); with Enterococcus faecium (Enterococcus faecium) it was 0.063 µg/mL (≈ 0.123 µM).

For `O=C1O[C@@H](CNc2ccon2)CN1c1ccc(-c2ccc(C3=NOCCN3)nc2)c(F)c1` [Compound 67], the MIC90 with Moraxella catarrhalis (strain 12, M. catarrhalis) was determined as 1 µg/mL (≈ 2.28 µM); in assay [1] (strain 11, E. faecium VanA LR), 2 µg/mL (≈ 4.56 µM); in [2] (strain 7, E. faecalis VanA LR) it was 2 µg/mL (≈ 4.56 µM); in assay [3] (strain 9, E. faecium VanA), 0.5 µg/mL (≈ 1.14 µM); in [4] (strain 10, E. faecium VanA LR) it was 2 µg/mL (≈ 4.56 µM); in assay [5] (strain 6, E. faecalis VanA) it was 0.5 µg/mL (≈ 1.14 µM). In addition, the MIC90 in [6] (strain 2, S. aureus MR) worked out at 0.5 µg/mL (≈ 1.14 µM); in assay [7] (strain 3, S. epidermidis), 0.25 µg/mL (≈ 0.57 µM); in the assay on Enterococcus faecalis (strain 5, E. faecalis) it was 0.5 µg/mL (≈ 1.14 µM); in the assay on Staphylococcus aureus (strain 1, S. aureus), 0.25 µg/mL (≈ 0.57 µM); in assay [8] (strain 4, S. epidermidis MR) it was 0.5 µg/mL (≈ 1.14 µM); in the assay on Enterococcus faecium (strain 8, E. faecium), 0.25 µg/mL (≈ 0.57 µM).

In the case of `O=C(O)CN1CCN(c2ccc(-c3ccc(N4C[C@H](COc5ccon5)OC4=O)cc3F)cn2)C=N1` [Compound 51], the MIC90 is over 128 µg/mL in the assay with Moraxella catarrhalis (strain 12, M. catarrhalis); 32 µg/mL (≈ 64.5 µM) in assay [1] (strain 11, E. faecium VanA LR); 16 µg/mL (≈ 32.2 µM) in assay [2] (strain 7, E. faecalis VanA LR); 4 µg/mL (≈ 8.06 µM) in assay [3] (strain 9, E. faecium VanA); 32 µg/mL (≈ 64.5 µM) in assay [4] (strain 10, E. faecium VanA LR); 4 µg/mL (≈ 8.06 µM) in assay [5] (strain 6, E. faecalis VanA). The MIC90 in assay [6] (strain 2, S. aureus MR) amounted to 1 µg/mL (≈ 2.01 µM); in assay [7] (strain 3, S. epidermidis), 1 µg/mL (≈ 2.01 µM); against Enterococcus faecalis (strain 5, E. faecalis) it was 4 µg/mL (≈ 8.06 µM); in the assay with Staphylococcus aureus (strain 1, S. aureus) it was 0.5 µg/mL (≈ 1.01 µM); in [8] (strain 4, S. epidermidis MR), 4 µg/mL (≈ 8.06 µM); in the assay with Enterococcus faecium (strain 8, E. faecium), 1 µg/mL (≈ 2.01 µM).

As for `COC(=O)NC[C@H]1CN(c2ccc(-c3ccc(N4C=NN(C(=O)CO)CC4)nc3)c(F)c2)C(=O)O1` [Compound 25], the MIC90 amounted to 4 µg/mL (≈ 8.22 µM) with Moraxella catarrhalis (Moraxella catarrhalis); 2 µg/mL (≈ 4.11 µM) in assay [1] (Enterococcus faecium); 4 µg/mL (≈ 8.22 µM) in [2] (Enterococcus faecalis); 0.5 µg/mL (≈ 1.03 µM) in assay [3] (Enterococcus faecium); 4 µg/mL (≈ 8.22 µM) in assay [4] (Enterococcus faecium); 0.5 µg/mL (≈ 1.03 µM) in [5] (Enterococcus faecalis). Further, the MIC90 came out at 0.5 µg/mL (≈ 1.03 µM) in [6] (Staphylococcus aureus); 0.25 µg/mL (≈ 0.514 µM) in assay [7] (Staphylococcus epidermidis); 0.5 µg/mL (≈ 1.03 µM) against Enterococcus faecalis (Enterococcus faecalis); 0.063 µg/mL (≈ 0.13 µM) with Staphylococcus aureus (Staphylococcus aureus); 1 µg/mL (≈ 2.06 µM) in assay [8] (Staphylococcus epidermidis); 0.25 µg/mL (≈ 0.514 µM) in the assay on Enterococcus faecium (Enterococcus faecium).

For the compound `CCN1CCN(c2ccc(-c3ccc(N4C[C@H](CO)OC4=O)cc3F)cn2)C=N1` [Compound 29], the MIC90 with Moraxella catarrhalis (Moraxella catarrhalis) worked out at 32 µg/mL (≈ 80.1 µM); in [1] (Enterococcus faecium) it was 64 µg/mL (≈ 160 µM); in assay [2] (Enterococcus faecalis), 64 µg/mL (≈ 160 µM); in assay [3] (Enterococcus faecium), 8 µg/mL (≈ 20 µM); in [4] (Enterococcus faecium) it was 64 µg/mL (≈ 160 µM); in assay [5] (Enterococcus faecalis) it was 16 µg/mL (≈ 40.1 µM). Moreover, the MIC90 in [6] (Staphylococcus aureus) came to 8 µg/mL (≈ 20 µM); in assay [7] (Staphylococcus epidermidis) it was 4 µg/mL (≈ 10 µM); against Enterococcus faecalis (Enterococcus faecalis) it was 16 µg/mL (≈ 40.1 µM); in the assay with Staphylococcus aureus (Staphylococcus aureus) it was 8 µg/mL (≈ 20 µM); in [8] (Staphylococcus epidermidis) it was 8 µg/mL (≈ 20 µM); against Enterococcus faecium (Enterococcus faecium), 8 µg/mL (≈ 20 µM).

With `CC(=O)NC[C@H]1CN(c2ccc(-c3ccc(N4C=NN(C(=O)CN)CC4)nc3)c(F)c2)C(=O)O1` [Compound 19], the MIC90 in the assay with Moraxella catarrhalis (Moraxella catarrhalis) is 1 µg/mL (≈ 2.13 µM); in [1] (Enterococcus faecium) it was 2 µg/mL (≈ 4.26 µM); in assay [2] (Enterococcus faecalis), 2 µg/mL (≈ 4.26 µM); in assay [3] (Enterococcus faecium), 0.5 µg/mL (≈ 1.07 µM); in [4] (Enterococcus faecium) it was 2 µg/mL (≈ 4.26 µM); in assay [5] (Enterococcus faecalis), 0.5 µg/mL (≈ 1.07 µM). In addition, the MIC90 in assay [6] (Staphylococcus aureus) amounted to 0.5 µg/mL (≈ 1.07 µM); in [7] (Staphylococcus epidermidis) it was 0.25 µg/mL (≈ 0.533 µM); against Enterococcus faecalis (Enterococcus faecalis), 0.5 µg/mL (≈ 1.07 µM); against Staphylococcus aureus (Staphylococcus aureus) it was 0.25 µg/mL (≈ 0.533 µM); in assay [8] (Staphylococcus epidermidis), 0.5 µg/mL (≈ 1.07 µM); in the assay with Enterococcus faecium (Enterococcus faecium), 0.25 µg/mL (≈ 0.533 µM).

The values are drawn from patent US8846669B2, “Oxazolidinone derivative and medical composition containing same” (Legochem Biosciences, Inc., priority 2011, dated 2014).
